Consider two compounds from patent US11970542B2, “Bispecific antibodies specific for treating hematological malignancies” (FRED HUTCHINSON CANCER CENTER, priority 2017, dated 2024).

The structures appear in SMILES notation.

For data set [1], the system named is CD38 receptor expression in MM cell lines (U266, H929 and L363). In words: ATRA effect on CD38 receptor expression in vitro. It counts as cell-based, human. The source says:
FIG. 12. […] These studies generated data to refine the process of manipulating CD38 receptor density for the purpose of increasing targeted delivery of radiolabeled DOTA-biotin after CD38 tumor cell pretargeting.

Data set [2] deals with surface CD38 on three multiple myeloma cells lines. Description: Antibody Binding Capacity assay (QuantiBrite), CD38 molecules. The format is cell-based, human. The conditions noted are these: 65-72 hours treatment. The protocol: FIG. 14. Antibody Binding Capacity assay (QuantiBrite, BD Biosciences) was used according to manufacturer instructions to measure the absolute number of CD38 molecules on the self-surface and accessible to antibody binding following 65-72 hours treatment of ATRA on three multiple myeloma cells lines.

For data set [3], the system named is surface BCMA on three multiple myeloma cells lines. In words: Antibody Binding Capacity assay (QuantiBrite), BCMA molecules. The format is cell-based, human. Conditions: 5 μM, 17 hours incubation. How it is done: FIG. 13. Antibody Binding Capacity assay (QuantiBrite, Cat. No. 340495, BD Biosciences) was used according to manufacturer instructions to measure the absolute number of BCMA molecules on the self-surface and accessible to antibody binding following 17 hours incubation in the presence or absence of 5 μM gamma secretase inhibitor (R04929097) on three multiple myeloma cells lines.

Data set [4] concerns surface BCMA on MM cell lines (RPMI8226, U266B1, MM1.R, H929) and primary MM samples. Description: Effect of GSI on BCMA expression, flow cytometry. It counts as cell-based, human. The source says: FIGS. 11A-11D. Dose dependent effect of the gamma secretase inhibitor, R04929097, on BCMA expression on 4 MM cell lines (11A, 11B) and 7 primary MM samples (11C, 11D). (11A) Surface BCMA expression by MM.1R cells cultured with the indicated concentrations of R04929097; staining with anti-BCMA antibody (black lines) compared to isotype control (grey line). (11B) Fold-change in surface BCMA expression by MM cell lines when cultured with the indicated concentrations of R04929097; fold change indicated relative to untreated MM cells of the same line. (11C) Surface BCMA expression by primary patient MM cells cultured with the indicated concentrations of R04929097. Staining was as described in regard to FIG. 11A. (11D) Fold change in BCMA on primary myeloma cells (n=7) cultured with vary amounts of GSI for […]. Primary and cell lines were cultured at 0.5×10^6 cells/mL. Fold change in BCMA is defined as Treated (MFIBCMA-MFIiso)/Control (MFIBCMA-MFIiso). Data is representative of 3 independent experiments with T cells derived from different donors.
The effect of GSI on BCMA expression was evaluated by incubating four MM cell lines (RPMI8226, U266B1, MM1.R, and H929) and primary MM samples in media containing 0 (DMSO), 0.01, 0.1, and 1.0 μM of GSI and measuring surface BCMA at 5 hr. […] These concentrations are 3-30 fold below the serum levels that are achieved by well tolerated oral dosing regimens of GSI in phase 1 trials in cancer patients.
(In general: In flow cytometry, cells or beads pass a laser one at a time.)

The nature of data set [5]: Blood clearance time course of BCMA bispecific with or without GSI. Details: species or system mice. The conditions noted are these: mouse, in vivo. From the text: FIG. 15. To ensure our clearing agent was able to effectively clear unbound agent from the blood stream, we conducted a time course experiment to test the impact of the clearing agent on the BCMA bispecific in the presence or absence of GSI. The percent of the injected dose (% ID) was monitored in the blood during a time course experiment by measuring the relative amount of Yttrium^90 in blood samples obtained from mice.

On to `CC1=C(/C=C/C(C)=C/C=C/C(C)=C/C(=O)O)C(C)(C)CCC1` [ATRA, all-trans retinoic acid], for which the CD38 receptor expression entry in data set [1] (U266 MM line, solubilized ATRA) is listed as “striking dose dependent increase in expression”; in data set [1] (three MM cell lines (U266, H929 and L363)) it was “dose dependent increase”. Also, in data set [2], the “number of CD38 molecules on the cell surface” value is recorded as “upregulates surface CD38 target expression”.

Turning to `CC(C)(C(=O)NCC(F)(F)C(F)(F)F)C(=O)N[C@@H]1C(=O)Nc2ccccc2-c2ccccc21` [R04929097], the “number of BCMA molecules on the cell surface” value in data set [3] is given as “upregulates surface BCMA target expression”. In addition, in data set [4] (0.01, 0.1, and 1.0 μM, 5 hr), the “effect on cell viability” value was “did not affect cell viability”. Besides, the “concentration of maximal increase in MFI of BCMA staining” value in data set [4] (0.01-1.0 μM tested, 5 hr) amounted to 1.0 µM. Moreover, in data set [4] (0.1 and 1.0 μM), the “soluble BCMA levels” value is reported as “decline in soluble BCMA levels”. In data set [4] (all 4 cell lines and primary MM cells, 5 hr), the “change in MFI of BCMA staining” value is given as “marked increase”. For the same compound, the “time to upregulation of BCMA after GSI exposure” value in data set [4] (time course) is no more than 1 h. In addition, the “blood clearance of BCMA bispecific fusion in combination with GSI” value in data set [5] was “further facilitated blood clearance”.
